According to patent US20100152434A1, “Protein Kinase-binding Nucleosides and Associated Methods” (priority 2007, published 2010):
pIC50: −log10 of the molar value. Where two headings read alike, the source gives them in different places.

How the values were obtained:
BT-549 = assay: cells; settings: Homo sapiens, BT-549
TK-10 = assay: cells; settings: Homo sapiens, TK-10
A498 [1] = assay: cells; settings: Homo sapiens, A498
EKVX = assay: cells; settings: Homo sapiens
HCC-2998 = settings: HCC-2993
HOP-62 = settings: HOP-52
OVCAR-3 = assay: cells; settings: Homo sapiens, OVCAR-3
MDA-MB-435 = MDA-MB-435 (Melanoma panel)
COLO 205 = assay: cells; settings: Homo sapiens, COLO 205
IGROV1 = assay: cells; settings: Homo sapiens, IGROV-1
A498 [2] = system: A498
SK-MEL-2 = assay: cells; settings: Homo sapiens, SK-MEL-2
CCRF-CEM = assay: cells; settings: Homo sapiens
A549/ATCC = assay: cells; settings: Homo sapiens, A549
U251 = assay: cells; settings: Homo sapiens, U-251
LOX IMVI [3] = system: LOX IMVI
LOX IMVI [4] = assay: cells; settings: Homo sapiens
T-47D = assay: cells; settings: Homo sapiens, T47D
[5] = Log10 Concentration −4.0, Molar
[6] = Log10 Concentration −5.0, Molar
[7] = Log10 Concentration −6.0, Molar
[8] = Log10 Concentration −7.0, Molar
[9] = Log10 Concentration −8.0, Molar

Molecule `CNC(=O)NC[C@H]1O[C@@H](n2cnc3c(NC(=O)Nc4ccccc4)ncnc32)C(O[Si](C)(C)C(C)(C)C)[C@H]1O[Si](C)(C)C(C)(C)C` (some centres unmarked) [Compound 25, 2′,3′-Bis-O-(tert-butyldimethylsilyl)-5-deoxy-5′-[(N-methylcarbamoyl)amino]-N^6-(N-phenylcarbamoyl)adenosine] has a GI50 (BT-549) of 2.92 µM, a pIC50 (BT-549) of less than 4.00 and a TGI (NCI-H460) of 3.49E−6 Molar. For the same molecule, the “Percent Growth” value (NCI-H460; [5]) was −75%, the “Percent Growth” value (NCI-H460; [6]) was −74% and the “Percent Growth” value (NCI-H460; [7]) was 88%. The “Percent Growth” value (NCI-H460; [8]) was 93%, the “Percent Growth” value (NCI-H460; [9]) was 104% and the GI50 (TK-10) was 4.29 µM. The pIC50 (TK-10) was less than 4.00, the GI50 (A498 [1]) was 2.03 µM and the pIC50 (A498 [1]) was 5.71. The GI50 (EKVX) was 3.7 µM, the pIC50 (EKVX) was less than 4.00 and the TGI (HCC-2998) was 3.75E−6 Molar. The “Percent Growth” value (HCC-2998; Log10 Concentration −4.0 Molar) was −91%, the “Percent Growth” value (HCC-2998; Log10 Concentration −5.0 Molar) was −79% and the “Percent Growth” value (HCC-2998; Log10 Concentration −6.0 Molar) was 106%. For the same molecule, the “Percent Growth” value (HCC-2998; Log10 Concentration −7.0 Molar) was 93%, the “Percent Growth” value (HCC-2998; Log10 Concentration −8.0 Molar) was 100% and the TGI (HOP-62) was 1.71E−5 Molar. The “Percent Growth” value (HOP-62; Log10 Concentration −4.0 Molar) was −55%, the “Percent Growth” value (HOP-62; Log10 Concentration −5.0 Molar) was 25% and the “Percent Growth” value (HOP-62; Log10 Concentration −6.0 Molar) was 105%. For the same molecule, the “Percent Growth” value (HOP-62; Log10 Concentration −7.0 Molar) was 108%, the “Percent Growth” value (HOP-62; Log10 Concentration −8.0 Molar) was 102% and the TGI (OVCAR-8) was 4.01E−5 Molar. For the same molecule, the “Percent Growth” value (OVCAR-8; [5]) was −9%, the “Percent Growth” value (OVCAR-8; [6]) was 13% and the “Percent Growth” value (OVCAR-8; [7]) was 106%. The “Percent Growth” value (OVCAR-8; [8]) was 106%, the “Percent Growth” value (OVCAR-8; [9]) was 108% and the GI50 (OVCAR-3) was 2.6 µM. The pIC50 (OVCAR-3) was 4.01, the TGI (UACC-62) was 2.36E−5 Molar and the “Percent Growth” value (UACC-62; [5]) was −39%. For the same molecule, the “Percent Growth” value (UACC-62; [6]) was 23%, the “Percent Growth” value (UACC-62; [7]) was 90% and the “Percent Growth” value (UACC-62; [8]) was 100%. The “Percent Growth” value (UACC-62; [9]) was 102%, the TGI (MDA-MB-435) was 2.91E−5 Molar and the “Percent Growth” value (MDA-MB-435; Log10 Concentration −4.0 Molar) was −10%. The “Percent Growth” value (MDA-MB-435; Log10 Concentration −5.0 Molar) was 9%, the “Percent Growth” value (MDA-MB-435; Log10 Concentration −6.0 Molar) was 97% and the “Percent Growth” value (MDA-MB-435; Log10 Concentration −7.0 Molar) was 102%. For the same molecule, the “Percent Growth” value (MDA-MB-435; Log10 Concentration −8.0 Molar) was 102%, the GI50 (COLO 205) was 1.59 µM and the pIC50 (COLO 205) was 5.22. The TGI (NCI-H23) was 9.07E−6 Molar, the “Percent Growth” value (NCI-H23; [5]) was −53% and the “Percent Growth” value (NCI-H23; [6]) was −5%. The “Percent Growth” value (NCI-H23; [7]) was 105%, the “Percent Growth” value (NCI-H23; [8]) was 106% and the “Percent Growth” value (NCI-H23; [9]) was 100%. For the same molecule, the GI50 (IGROV1) was 2.74 µM, the pIC50 (IGROV1) was less than 4.00 and the TGI (A498 [2]) was 4.06E−6 Molar. For the same molecule, the “Percent Growth” value (A498 [2]; [5]) was −75%, the “Percent Growth” value (A498 [2]; [6]) was −39% and the “Percent Growth” value (A498 [2]; [7]) was 90%. For the same molecule, the “Percent Growth” value (A498 [2]; [8]) was 97%, the “Percent Growth” value (A498 [2]; [9]) was 92% and the GI50 (SK-MEL-2) was 2.45 µM. It also gave a pIC50 (SK-MEL-2) of 4.55, a GI50 (CCRF-CEM) of 3.59 µM and a pIC50 (CCRF-CEM) of less than 4.00. It also gave a GI50 (A549/ATCC) of 2.9 µM, a pIC50 (A549/ATCC) of less than 4.00 and a TGI (KM12) of 4.41E−6 Molar. The “Percent Growth” value (KM12; [5]) was −74%, the “Percent Growth” value (KM12; [6]) was −66% and the “Percent Growth” value (KM12; [7]) was 107%. For the same molecule, the “Percent Growth” value (KM12; [8]) was 111%, the “Percent Growth” value (KM12; [9]) was 104% and the GI50 (U251) was 2.96 µM. For the same molecule, the pIC50 (U251) was less than 4.00, the TGI (LOX IMVI [3]) was 3.36E−6 Molar and the “Percent Growth” value (LOX IMVI [3]; [5]) was −77%. For the same molecule, the “Percent Growth” value (LOX IMVI [3]; [6]) was −89%, the “Percent Growth” value (LOX IMVI [3]; [7]) was 98% and the “Percent Growth” value (LOX IMVI [3]; [8]) was 101%. The “Percent Growth” value (LOX IMVI [3]; [9]) was 102%, the TGI (UO-31) was 9.56E−6 Molar and the “Percent Growth” value (UO-31; [5]) was −21%. For the same molecule, the “Percent Growth” value (UO-31; [6]) was −2%, the “Percent Growth” value (UO-31; [7]) was 84% and the “Percent Growth” value (UO-31; [8]) was 97%. The “Percent Growth” value (UO-31; [9]) was 87%, the TGI (SNB-19) was greater than 1.00E−4 Molar and the “Percent Growth” value (SNB-19; [5]) was 7%. For the same molecule, the “Percent Growth” value (SNB-19; [6]) was 29%, the “Percent Growth” value (SNB-19; [7]) was 91% and the “Percent Growth” value (SNB-19; [8]) was 100%. For the same molecule, the “Percent Growth” value (SNB-19; [9]) was 97%, the GI50 (LOX IMVI [4]) was 1.82 µM and the pIC50 (LOX IMVI [4]) was 4.21. For the same molecule, the TGI (SF-539) was 1.30E−5 Molar, the “Percent Growth” value (SF-539; [5]) was −51% and the “Percent Growth” value (SF-539; [6]) was 7%. For the same molecule, the “Percent Growth” value (SF-539; [7]) was 91%, the “Percent Growth” value (SF-539; [8]) was 100% and the “Percent Growth” value (SF-539; [9]) was 100%. The GI50 (T-47D) was 2.87 µM and the pIC50 (T-47D) was less than 4.00.
